Experimental data published in patent US20260137662A1, “CD11B AGONISTS FOR TREATMENT OF AUTOIMMUNE DISEASE” (Rush University Medical Center, priority 2022, published 2026).

Experiments:
[1] = test system: RAW 264.7 murine macrophage cell line; assay: suPAR and TNFa secretion from RAW 264.7 cells treated with LN patient sera (ELISA); type: cell-based; settings: co-treatment LN sera (0.5%) and LA1 (20 uM), 4 hours, vs LN sera alone
Procedure: FIG. 1A illustrates levels of biomarker suPAR secretion from RAW 264.7 cells after 4 hours of treatment with cell culture medium (UT), LA1 (20 uM), LN patient sera (0.5%) in culture medium ([…]), or co-treatment with LN sera (0.5%) and LA1 (20 uM). […] FIG. 1B illustrates levels of biomarker TNFa secretion from RAW 264.7 cells after 4 hours of treatment with cell culture medium (UT), LA1 (20 uM), LN patient sera (0.5%) in culture medium ([…]), or co-treatment with LN sera (0.5%) and LA1 (20 uM). […] Myeloid cells from RAW 264.7 murine macrophage cell line were used to measure the concentration of pro-inflammatory biomarkers, soluble uPAR (suPAR) and TNFa, in the presence of lupus nephritis (LN) sera and LA1. The levels of pro-inflammatory biomarkers were measured in the supernatant of untreated cells, cells treated with LA1, cells treated with sera from patients with lupus nephritis (LN), and cells co-treated with LN sera and LA1. The concentrations of various pro-inflammatory biomarkers in cell supernatant were measured 4 hours after treatment using ELISA.

TLR7 mediated pathways = assay: Relative gene expression (RT-PCR) in myeloid cells stimulated with imiquimod; type: cell-based; settings: IMQ (20 ug/mL) and LA1 (20 uM) co-treatment, 4 hours
Procedure: FIG. 3A illustrates transcriptional levels of biomarker IL-1b in myeloid cells after 4 hours of treatment with vehicle DMSO (UT), LA1 (20 uM), imiquimod (IMQ) (20 ug/mL), or IMQ and LA1 co-treatment. Bars show mean with SD (N=3) (*P<0.05, **P<0.01, ***P<0.001, ***P<0.0001).
FIG. 3B illustrates transcriptional levels of biomarker uPAR in myeloid cells after 4 hours of treatment with vehicle DMSO (UT), LA1 (20 uM), imiquimod (IMQ) (20 ug/mL), or IMQ and LA1 co-treatment. Bars show mean with SD (N=3) (*P<0.05, **P<0.01, ***P<0.001, ***P<0.0001).
FIG. 3C illustrates transcriptional levels of biomarker IL-6 in myeloid cells after 4 hours of treatment with vehicle DMSO (UT), LA1 (20 uM), imiquimod (IMQ) (20 ug/mL), or IMQ and LA1 co-treatment. Bars show mean with SD (N=3) (*P<0.05, **P<0.01, ***P<0.001, ***P<0.0001).
FIG. 3D illustrates transcriptional levels of biomarker NLRP3 in myeloid cells after 4 hours of treatment with vehicle DMSO (UT), LA1 (20 uM), imiquimod (IMQ) (20 ug/mL), or IMQ and LA1 co-treatment. Bars show mean with SD (N=3) (*P<0.05, **P<0.01, ***P<0.001, ***P<0.0001).
The impact of CD11b activation by LA1 on TLR7 mediated pathways was assessed by treating myeloid cells with imiquimod (IMQ), a known TLR7 stimulant, and co-treating myeloid cells with IMQ and LA1. Relative gene expression of various biomarkers was assessed by RT-PCR.

[2] = test system: LPS-treated wild type C57BL/6 mice; assay: Serum IL-6 in LPS-treated mice, oral LA1 dose response; type: in vivo; settings: 4 hours
Procedure: FIG. 11 illustrates the concentration of biomarker IL-6 in wild type mice and wild type mice co-treated with various dose amounts of LPS and LA1 (0, 2, 10, 30, or 60 mg/kg). Each dot represents a unique sample. Bars show mean +/−SEM (n=4).
Administration of LPS to wild type C57BL/6 mice (WT) results in rapid elevation of pro-inflammatory mediators, such as IL-6, in murine sera. WT mice treated with LPS were used to study the dose-responsive efficacy of LA1 in reducing inflammatory cytokine levels in vivo. A single dose of LA 1 was orally administered to mice co-administered LPS. After 4 hours, sera was collected and used for ELISA.

O=C(O)c1ccc(-c2ccc(/C=C3\SC(=S)N(Cc4ccccc4)C3=O)o2)cc1 [LA1, (Z)-4-(5-((3-benzyl-4-oxo-2-thioxothiazolidin-5-ylidene)methyl)furan-2-yl)benzoic acid]
no difference: serum IL-6 levels versus non-LPS injected WT control ([2]; LA1 30 mg/kg oral) | serum IL-6 levels versus non-LPS injected WT control ([2]; LA1 60 mg/kg oral)
significantly reduced: level of TNFa in cell supernatant [1] | level of soluble uPAR (suPAR) in cell supernatant [1] | TLR7-dependent increase in IL-1b expression level (TLR7 mediated pathways) | TLR7-dependent increase in IL-6 expression level (TLR7 mediated pathways) | TLR7-dependent increase in NLRP3 expression level (TLR7 mediated pathways) | TLR7-dependent increase in uPAR expression level (TLR7 mediated pathways) | IL-6 levels in murine sera ([2]; single oral dose of LA1 (2, 10, 30, 60 mg/kg) co-administered with LPS, dose dependent)
